A value given as a limit tells only on which side of the number the result lay.

This test relates to HCV 1b-Con-1 replicon. In words: HCV 1b-Con-1 replicon assay (luciferase reporter gene, HuH-7 cells). As to conditions: Hepatitis C virus, Huh-7, luciferase reporter gene activity in the replicon, in the presence of 5% FBS. It is filed as cell-based, Hepatitis C virus (HCV) genotype 1b-Con1. For orientation: Replicon systems follow genome replication, usually without infectious particles.
The term EC50 denotes the concentration needed to bring the measured effect to its halfway point. As to `CCN(CC)[C@@H](C(=O)N1CCC[C@H]1c1nc2cc(CN(Cc3ccc4[nH]c([C@@H]5CCCN5C(=O)[C@@H](c5ccccc5)N(CC)CC)nc4c3)c3ccccc3)ccc2[nH]1)c1ccccc1` [Example 65, N,N-bis[(2-{(2S)-1-[(2R)-2-(diethylamino)-2-phenylacetyl]pyrrolidin-2-yl}-1H-benzimidazol-5-yl)methyl]aniline], the EC50 is less than 1 nM.

As to `COC(=O)N[C@H](C(=O)N1CCC[C@H]1C(=O)Nc1ccc(CN(Cc2ccc(NC(=O)[C@@H]3CCCN3C(=O)[C@@H](NC(=O)OC)C3CCCC3)cc2)c2ccc(F)cc2)cc1)C1CCCC1` [Example 133, dimethyl ([(4-fluorophenyl)imino]bis{methanediylbenzene-4,1-diylcarbamoyl(2S)pyrrolidine-2,1-diyl[(1S)-1-cyclopentyl-2-oxoethane-2,1-diyl]})biscarbamate], the EC50 is less than 1 nM.

On to `COC(=O)N[C@H](C(=O)N1C[C@@H](F)C[C@H]1C(=O)Nc1ccc(CN(Cc2ccc(NC(=O)[C@@H]3C[C@H](F)CN3C(=O)[C@@H](NC(=O)OC)C(C)(C)C)cc2)c2ccccc2)cc1)C(C)(C)C` [Example 94], for which the EC50 was 1 to 10 nM.

Take `O=C(Nc1ccc(CN(Cc2ccc(NC(=O)[C@@H]3CCCN3C(=O)O[C@H]3CCOC3)cc2)c2ccccc2)cc1)[C@@H]1CCCN1C(=O)O[C@H]1CCOC1` [Example 150, di[(3S)-tetrahydrofuran-3-yl](2S,2′S)-2,2′-[(phenylimino)bis(methanediylbenzene-4,1-diylcarbamoyl)]dipyrrolidine-1-carboxylate]: the EC50 is 10 to 100 nM.

As for `COC(=O)N[C@@H](CCO)C(=O)N1CCC[C@H]1C(=O)Nc1ccc(CN(Cc2ccc(NC(=O)[C@@H]3CCCN3C(=O)[C@H](CCO)NC(=O)OC)cc2)c2ccc(F)cc2)cc1` [Example 134, dimethyl ([(4-fluorophenyl)imino]bis{methanediylbenzene-4,1-diylcarbamoyl(2S)pyrrolidine-2,1-diyl[(2S)-4-hydroxy-1-oxobutane-1,2-diyl]})biscarbamate], the EC50 fell in the range of 1 to 10 nM.

As for `COC(=O)N1CCOC[C@H]1C(=O)N1CCC[C@H]1C(=O)Nc1ccc(CN(Cc2ccc(NC(=O)[C@@H]3CCCN3C(=O)[C@@H]3COCCN3C(=O)OC)cc2)c2ccc(F)cc2)cc1` [Example 144, dimethyl (3S,3′S)-3,3′-{[(4-fluorophenyl)imino]bis[methanediylbenzene-4,1-diylcarbamoyl(2S)pyrrolidine-2,1-diylcarbonyl]}dimorpholine-4-carboxylate], the EC50 lay within 100 to 250 nM.

For `O=C(Nc1ccc(CN(Cc2ccc(NC(=O)[C@@H]3CCCN3C(=O)[C@@H](c3ccccc3)N3CCCC3)cc2)c2ccc(F)cc2)cc1)[C@@H]1CCCN1C(=O)[C@@H](c1ccccc1)N1CCCC1` [Example 85, (2S,2′S)-N,N′-{[(4-fluorophenyl)imino]bis(methanediylbenzene-4,1-diyl)}bis{1-[(2R)-2-phenyl-2-pyrrolidin-1-ylacetyl]pyrrolidine-2-carboxamide}], the EC50 is less than 1 nM.

For `COC(=O)N[C@@H](CC(C)C)C(=O)N1CCC[C@H]1C(=O)Nc1ccc(CN(Cc2ccc(NC(=O)[C@@H]3CCCN3C(=O)[C@H](CC(C)C)NC(=O)OC)cc2)c2ccccc2)cc1` [Example 45, dimethyl [(phenylimino)bis{methanediylbenzene-4,1-diylcarbamoyl(2S)pyrrolidine-2,1-diyl[(2S)-4-methyl-1-oxopentane-1,2-diyl]}]biscarbamate], the EC50 was in the range of 1 to 10 nM.

As for `COC(=O)N[C@H](C(=O)N1CCC[C@H]1c1nc2ccc(CN(Cc3ccc4nc([C@@H]5CCCN5C(=O)[C@@H](NC(=O)OC)[C@@H](C)O)[nH]c4c3)c3ccccc3)cc2[nH]1)[C@@H](C)O` [Example 35, methyl [(1S,2R)-2-hydroxy-1-{[(2S)-2-(6-{[({2-[(2S)-1-{(2S,3R)-3-hydroxy-2-[(methoxycarbonyl)amino]butanoyl}pyrrolidin-2-yl]-1H-benzimidazol-6-yl}methyl)(phenyl)amino]methyl}-1H-benzimidazol-2-yl)pyrrolidin-1-yl]carbonyl}propyl]carbamate], the half-maximal effective concentration (EC50) was less than 1 nM.

With `COC(=O)N[C@H](C(=O)N1CCC[C@H]1c1nc2cc(CN(Cc3ccc4oc([C@@H]5CCCN5C(=O)[C@@H](NC(=O)OC)C(C)C)nc4c3)c3ccccc3)ccc2o1)C(C)C` [Example 148, methyl [(1S)-1-{[(2S)-2-(5-{[({2-[(2S)-1-{(2S)-2-[(methoxycarbonyl)amino]-3-methylbutanoyl}pyrrolidin-2-yl]-1,3-benzoxazol-5-yl}methyl)(phenyl)amino]methyl}-1,3-benzoxazol-2-yl)pyrrolidin-1-yl]carbonyl}-2-methylpropyl]carbamate], the EC50 fell in the range of 100 to 250 nM.

For `CCN(CC)[C@@H](C(=O)N1CCC[C@H]1c1nc2cc(CN(Cc3ccc4[nH]c([C@@H]5CCCN5C(=O)[C@@H](c5ccccc5)N(CC)CC)nc4c3)c3ccc(F)cc3)ccc2[nH]1)c1ccccc1` [Example 95, N,N-bis[(2-{(2S)-1-[(2R)-2-(diethylamino)-2-phenylacetyl]pyrrolidin-2-yl}-1H-benzimidazol-5-yl)methyl]-4-fluoroaniline], the EC50 was less than 1 nM.

Turning to `CC[C@H](NC(=O)OC)C(=O)N1CCC[C@H]1C(=O)Nc1ccc(CN(Cc2ccc(NC(=O)[C@@H]3CCCN3C(=O)[C@@H](NC(=O)OC)C(C)(C)C)cc2)c2ccccc2)cc1` [Example 62, N-(methoxycarbonyl)-3-methyl-L-valyl-N-(4-{[{4-[(1-{(2S)-2-[(methoxycarbonyl)amino]butanoyl}-L-prolyl)amino]benzyl}(phenyl)amino]methyl}phenyl)-L-prolinamide], the EC50 lay within 1 to 10 nM.

For `COC(=O)N[C@H](C(=O)N1CCC[C@H]1C(=O)Nc1ccc(CN(Cc2ccc3[nH]c([C@@H]4CCCN4C(=O)[C@@H](NC(=O)OC)C(C)(C)O)nc3c2)c2ccc(F)cc2)cc1)C(C)(C)O` [Example 99, 3-hydroxy-N-(methoxycarbonyl)-L-valyl-N-[4-({(4-fluorophenyl)[(2-{(2S)-1-[3-hydroxy-N-(methoxycarbonyl)-L-valyl]pyrrolidin-2-yl}-1H-benzimidazol-5-yl)methyl]amino}methyl)phenyl]-L-prolinamide], the EC50 was less than 1 nM.

`CC[C@H](NC(=O)OC)C(=O)N1CCC[C@H]1C(=O)Nc1ccc(CN(Cc2ccc(NC(=O)[C@@H]3CCCN3C(=O)[C@H](NC(=O)OC)c3ccccc3)cc2)c2ccccc2)cc1` [Example 71, methyl {(1R)-2-[(2S)-2-{[4-({[4-({[(2S)-1-{(2S)-2-[(methoxycarbonyl)amino]butanoyl}pyrrolidin-2-yl]carbonyl}amino)benzyl](phenyl)amino}methyl)phenyl]carbamoyl}pyrrolidin-1-yl]-2-oxo-1-phenylethyl}carbamate]: the EC50 is less than 1 nM.

In the case of `COC(=O)N[C@H](C(=O)N1CC(F)(F)C[C@H]1C(=O)Nc1ccc(CN(Cc2ccc(NC(=O)[C@@H]3CC(F)(F)CN3C(=O)[C@@H](NC(=O)OC)C(C)(C)C)cc2)c2ccccc2)cc1)C(C)(C)C` [Example 73], the 50% effective concentration (EC50) is less than 1 nM.

`O=C(Nc1ccc(CN(Cc2ccc(NC(=O)[C@@H]3CCCN3C(=O)C(c3ccccc3)N3CC[C@@H](F)C3)cc2)c2ccc(F)cc2)cc1)[C@@H]1CCCN1C(=O)C(c1ccccc1)N1CC[C@@H](F)C1` (single isomer, unassigned) [Example 118]: the concentration giving a half-maximal response (EC50) is 1 to 10 nM.

On to `COC(=O)N[C@@H](CCc1ccccc1)C(=O)N1CCC[C@H]1C(=O)Nc1ccc(CN(Cc2ccc(NC(=O)[C@@H]3CCCN3C(=O)[C@H](CCc3ccccc3)NC(=O)OC)cc2)c2ccccc2)cc1` [Example 91, dimethyl[(phenylimino)bis{methanediylbenzene-4,1-diylcarbamoyl(2S)pyrrolidine-2,1-diyl[(2S)-1-oxo-4-phenylbutane-1,2-diyl]}]biscarbamate], for which the EC50 fell in the range of 1 to 10 nM.

As to `COC(=O)N[C@@H](CO)C(=O)N1CCC[C@H]1C(=O)Nc1ccc(CN(Cc2ccc(NC(=O)[C@@H]3CCCN3C(=O)[C@H](CO)NC(=O)OC)cc2)c2ccccc2)cc1` [Example 26, dimethyl[(phenylimino)bis{methanediylbenzene-4,1-diylcarbamoyl(2S)pyrrolidine-2,1-diyl[(2S)-3-hydroxy-1-oxopropane-1,2-diyl]}]biscarbamate], the EC50 is 10 to 100 nM.

`O=C(Nc1ccc(CN(Cc2ccc(NC(=O)[C@@H]3CCCN3C(=O)C(c3ccccc3)N3CCC(F)(F)CC3)cc2)c2ccc(F)cc2)cc1)[C@@H]1CCCN1C(=O)C(c1ccccc1)N1CCC(F)(F)CC1` (single isomer, unassigned) [Example 139]: the EC50 was 1 to 10 nM.

Turning to `CCC(O)(CC)C(C(=O)N1CCC[C@H]1C(=O)Nc1ccc(CN(Cc2ccc(NC(=O)[C@@H]3CCCN3C(=O)C(c3ccccc3)C(O)(CC)CC)cc2)c2ccc(F)cc2)cc1)c1ccccc1` (stereo partly drawn) [Example 105, (2S,2′S)-N,N′-{[(4-fluorophenyl)imino]bis(methanediylbenzene-4,1-diyl)}bis[1-(3-ethyl-3-hydroxy-2-phenylpentanoyl)pyrrolidine-2-carboxamide]], the EC50 was less than 1 nM.

Turning to `O=C(Nc1ccc(CN(Cc2ccc(NC(=O)[C@@H]3CCCN3C(=O)[C@@H](c3ccccc3)N3CCCCC3)cc2)c2ccc(F)c(F)c2)cc1)[C@@H]1CCCN1C(=O)[C@@H](c1ccccc1)N1CCCCC1` [Example 137, (2S,2′S)-N,N′-{[(3,4-difluorophenyl)imino]bis(methanediylbenzene-4,1-diyl)}bis{1-[(2R)-2-phenyl-2-piperidin-1-ylacetyl]pyrrolidine-2-carboxamide}], the EC50 was less than 1 nM.

Consider `C=CC[C@H]1CC[C@@H](C(=O)Nc2ccc(CN(Cc3ccc(NC(=O)[C@@H]4CC[C@H](CC=C)N4C(=O)[C@@H](NC(=O)OC)C(C)(C)C)cc3)c3ccccc3)cc2)N1C(=O)[C@@H](NC(=O)OC)C(C)(C)C` [Example 64], for which the 50% effective concentration (EC50) is less than 1 nM.

Regarding `CCN(C(C)C)[C@@H](C(=O)N1CCC[C@H]1C(=O)Nc1ccc(CN(Cc2ccc(NC(=O)[C@@H]3CCCN3C(=O)[C@@H](c3ccccc3)N(CC)C(C)C)cc2)c2ccc(F)cc2)cc1)c1ccccc1` [Example 132, (2S,2′S)-N,N′-{[(4-fluorophenyl)imino]bis(methanediylbenzene-4,1-diyl)}bis(1-{(2R)-2-[ethyl(1-methylethyl)amino]-2-phenylacetyl}pyrrolidine-2-carboxamide)], the EC50 was less than 1 nM.

The values above are taken from US9278922B2 (ABBVIE INC., priority 2009, dated 2016).
